Assay results published in article PMC6344527, “Toxicity and possible mechanisms of action of honokiol from Magnolia denudata seeds against four mosquito species” (Scientific Reports, 2019).
Converted amounts (≈) assume the structure as drawn. Where two headings read alike, the source gives them in different places.

How the values were obtained:
[1] = system: mosquito species larvae; settings: cited from earlier work
[2] = system: third-instar larvae of insecticide-susceptible Culex pipiens pallens; experiment: contact mortality bioassay, 24 h exposure; assay type: in vivo; settings: Table 6, structure-activity series, 24 h exposure; for LC50: Culex pipiens, 24 h, read-out: LC50 (mg/L) (95% CI)
Description: (§1) A contact mortality bioassay[25] was used to evaluate the toxicity of all compounds against third-instar larvae of the four mosquito species. Each test compound in methanol was suspended in DW with Triton X-100 (20 µL/L). Groups of 20 mosquito larvae were separately placed into paper cups (270 mL) containing each compound solution (250 mL). […] Negative controls consisted of a methanol–Triton X-100 solution in DW.
(§2) Treated and control (methanol–Triton X-100 solution only) larvae were maintained under the same conditions as those used for colony maintenance without providing food. Larval mortalities were determined 24 h post-treatment. […] All treatments were performed three times using 20 larvae per replicate.
(§3) The concentration of the test compounds required to produce 50% AChE inhibitory activity (IC50) was determined using the SAS 9.13 program (Cary: SAS Institute; 2014). Concentration-mortality data were subjected to probit analysis using the SAS 9.13 program. […] Statistical analyses were performed using the SAS 9.13 program. Multiple linear regression and correlation analysis were performed using the SPSS 24 program (Armonk: IBM Corp.; 2016).

[3] = system: third-instar larvae of insecticide-susceptible Aedes aegypti; experiment: contact mortality bioassay, 24 h exposure; assay type: in vivo; settings: Table 7, structure-activity series, 24 h exposure; for LC50: Aedes aegypti, 24 h, read-out: LC50 (mg/L) (95% CI)
Description: as §1, §2, §3

[4] = biological target: acetylcholinesterase (AChE) from third-instar Ae. aegypti larvae (Aedes aegypti, UniProt A4GND7); experiment: acetylcholinesterase inhibition assay; assay type: biochemical; settings: based on IC50 values
Chain of acetylcholinesterase (AChE) from third-instar Ae. aegypti larvae (A4GND7 37-679): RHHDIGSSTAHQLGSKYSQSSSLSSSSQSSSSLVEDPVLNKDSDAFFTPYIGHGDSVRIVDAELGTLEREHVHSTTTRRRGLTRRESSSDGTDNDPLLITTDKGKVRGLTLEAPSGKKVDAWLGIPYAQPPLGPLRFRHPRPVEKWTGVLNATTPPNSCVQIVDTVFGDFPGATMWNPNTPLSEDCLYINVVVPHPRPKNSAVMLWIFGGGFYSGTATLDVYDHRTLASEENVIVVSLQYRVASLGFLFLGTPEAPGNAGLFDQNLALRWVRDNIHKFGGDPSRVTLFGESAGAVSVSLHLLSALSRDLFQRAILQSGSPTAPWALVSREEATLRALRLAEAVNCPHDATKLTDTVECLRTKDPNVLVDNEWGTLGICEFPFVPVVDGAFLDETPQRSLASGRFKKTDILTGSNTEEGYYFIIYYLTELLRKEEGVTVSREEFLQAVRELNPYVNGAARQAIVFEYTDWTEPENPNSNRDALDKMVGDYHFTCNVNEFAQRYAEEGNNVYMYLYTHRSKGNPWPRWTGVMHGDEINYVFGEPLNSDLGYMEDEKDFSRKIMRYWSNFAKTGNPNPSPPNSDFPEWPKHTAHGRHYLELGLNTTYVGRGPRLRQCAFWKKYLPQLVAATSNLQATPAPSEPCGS
Description: The in vitro AChE inhibitory activity of the test compounds was assessed according to the method of Perumalsamy et al.[42]. Third-instar Ae. aegypti larvae were used in all experiments. Whole bodies of 50 larvae were homogenized in 1 mL of ice-cold 0.1 M phosphate buffer (pH 8.0) using a glass tissue homogenizer. After filtering through cheesecloth, the homogenate was centrifuged at 1,000 × g at 4 °C for 5 min. The supernatant was used directly as the enzyme source for AChE. The protein levels were determined using the Bradford Protein Assay Kit (Bio-Rad Laboratories, Hercules, CA, USA) using BSA as the standard. The reaction mixture consisted of 50 µL of the crude enzyme preparation (4.3–4.8 µg protein equivalents), 150 µL of 0.1 M phosphate buffer, 20 µL of 3 mM DTNB in phosphate buffer (pH 7.0), and 1 µL of various concentrations of each test compound in ethanol. The reaction mixture was incubated at 30 °C for 5 min, and 20 µL of 32 mM ATChI was then added to the mixture. After incubation for 30 min, the reaction was terminated by adding 20 µL of 5 mM eserine salicylate. Absorbance was recorded at 412 nm using a VersaMax microplate reader (Molecular Devices, Sunnyvale, CA, USA). […] The results are expressed as the means ± standard errors (SEs) of triplicate samples from three independent experiments.
as §3

[5] = system: whole-body homogenate from third-instar Aedes aegypti larvae (adenylate cyclase activity); experiment: determination of cyclic AMP levels (octopamine-sensitive adenylate cyclase activity); assay type: biochemical; settings: 100 μM; compared with control group / octopamine
Description: The method of Perumalsamy et al.[42] was used to assess the in vitro octopamine-sensitive adenylate cyclase activity of the test compounds. In brief, whole bodies of 75 Ae. aegypti larvae (106.2 mg) were homogenized in 500 µL of 2 mM Tris-maleate buffer (pH 7.4) containing 0.8 mM ethylene glycol tetraacetic acid (EGTA). The adenylate cyclase activity was determined using the cAMP Biotrak Enzymeimmunoassay system according to the manufacturer’s protocol. The assay was conducted in a total volume of 100 µL containing 80 mM Tris-maleate buffer, 5 mM theophylline, 2 mM MgSO4, 0.5 mM adenosine triphosphate (ATP), 0.2 mM EGTA, 50 µL of whole-body homogenate (equivalent to 4.12 µg protein), and 1 µL of the test compounds in Tris-maleate buffer containing 0.2% ethanol. After incubation at 20 °C for 5 min, the reaction was initiated by addition of ATP. Incubation was performed at 30 °C for 3 min in a shaking water bath. The reaction was stopped by boiling for 2 min, and then, the assay tube was cooled and centrifuged at 8,000 × g for 10 min. Fifty microliters of the supernatant were assayed for cAMP levels.
Polystyrene microplates (1 strip of 8 wells) coated with a goat anti-mouse polyclonal antibody were used. Fifty microliters of a mouse monoclonal antibody solution were added to each well except for the blank wells (or the nonspecific binding wells). The wells covered with the adhesive strip were incubated at 25 °C for 1 h in a shaking incubator (480 rpm). After washing with 400 µL of wash buffer four times, 50 μL of the two neolignan samples for cAMP determination and cAMP standard were added to wells. Control, blank (nonspecific binding), and zero standard wells were supplemented with 50 μL of a diluent RD5-55 buffer. […] The optical densities at 450 and 540 nm were determined using the microplate reader described above. The readings at 540 nm were subtracted from the readings at 450 nm. The cAMP concentrations are expressed as nmol/µg protein. The results are expressed as the means ± SEs of triplicate samples from three independent experiments.

In the case of `CCOC(=O)C=Cc1ccc(OC)cc1` [ethyl p-methoxycinnamate], the LC50 ([1]; phenylpropanoids) is listed as 12.3 to 20.7 µg/mL.
For isoeugenol, the “LC90 (mg/L) (95% CI)” value [2] was 138.1 (124.4–164.5) mg/L and the “LC90 (mg/L) (95% CI)” value [3] was 137.2 (124.3–161.2) mg/L.
With `C=CCc1ccc(O)c(OC)c1` [Eugenol, eugenol] the LC50 [2] was 74.3 mg/L (≈ 453 µM), the “LC90 (mg/L) (95% CI)” value [2] was 143.3 (127.2–170.3) mg/L and the LC50 [3] was 75.8 mg/L (≈ 461 µM). The “LC90 (mg/L) (95% CI)” value [3] was 141.4 (126.3–166.2) mg/L.
For `CC(C)=C1C[C@H]2C(=C(C)C(=O)C1=O)CC[C@]2(C)O` [9-oxoneoprocurcumenol], the LC50 ([1]; terpenoids) is given as 5.81 µg/mL (≈ 23.4 µM).
In the case of `CCCCCCCC/C=C\CCCCCCCC(=O)O` [oleic acid], the LC50 ([1]; flavonoids and fatty acids) is given as 18.07 to 18.45 µg/mL.
For `C=CC[C@@]12C=C(OC)C(=O)C=C1O[C@H](c1ccc3c(c1)OCO3)[C@H]2C` [burchellin], the LC50 ([1]; neolignans) is listed as 15.5 µg/mL (≈ 45.5 µM).
With `Oc1ccc(-c2ccc(O)cc2)cc1` [p,p′-Biphenol, p,p′-biphenol] the “AChE inhibitory activity (in words)” value [4] was “relatively weak AChE inhibitors”, the LC50 [2] was 7.52 mg/L (≈ 40.4 µM) and the “LC90 (mg/L) (95% CI)” value [2] was 23.97 (18.97–35.16) mg/L. The LC50 [3] was 8.34 mg/L (≈ 44.8 µM) and the “LC90 (mg/L) (95% CI)” value [3] was 27.76 (21.50–42.52) mg/L.
In the case of `C=C[C@@H](O)C#CC#C[C@@H](O)/C=C\CCCCCCC` [falcarindiol], the LC50 ([1]; acetylenic alcohols) is listed as 6.51 µg/mL (≈ 25 µM).
For (−)-asarinin, the LC50 ([1]; lignans) is given as 10.49 to 16.49 µg/mL.
In the case of `NCC(O)c1ccc(O)cc1` (stereo not shown) [octopamine, reference compound], the cAMP levels [5] is reported as “did not differ significantly”.
For `N#C[C@@H](O[C@@H]1O[C@H](CO)[C@@H](O)[C@H](O)[C@H]1O)c1ccc(O)cc1` [dhurrin], the LC50 ([1]; cyanogenic glycosides) is listed as 12 µg/mL (≈ 38.5 µM).
